This is an account of results in a melting point compilation (Tetko et al.; mined from patent text by program, amines drawn as free bases though some values may be those of a salt).

Each structure is given as a SMILES string.

Compound `Cc1ccc2c(c1)C(NC(=O)CCCN1CCN(c3ccc(F)cc3)CC1)c1ccccc1CS2(=O)=O` (configuration not stated) registered a melting point of 163 to 165 °C.

In turn, `COc1ccc(O)cc1CCc1ccc2nc[nH]c(=O)c2c1` displayed a melting point of 221 to 224 °C.

In the case of `CC(C)c1ncc(OCc2ccccc2)c(O)n1`, the melting point stood at 198 °C.

The compound `CC(C)CC(=O)OC1COC(OC(=O)CC(C)C)CO1` (configuration not stated) registered a melting point of 104 to 105 °C.

In turn, `CN1C(=O)N(CCC(COc2ccc(-c3ccc(C#N)cc3)cc2)N(O)C=O)C(=O)C1(C)C` (configuration not stated) came in with a melting point of 68 to 70 °C.

For the compound `COc1nn(Cc2ccc(OCc3nc(-c4ccccc4)oc3C)cc2)cc1CCC(=O)O`, the melting point fell in the range of 127 to 128 °C.

For `CSc1ccc(C2=NC[C@@H](O)[C@H](c3ccccc3)O2)cc1` (racemic), the melting point came to 130 °C.

`COc1cc(Cl)ccc1CN1C(=O)C(C)(c2cc(C(=O)N3CCCCC3)ccc2Cl)c2cc(Cl)ccc21` (configuration not stated) showed a melting point of 205 °C.

For `CCC(=O)N1CCC(NC(=O)Nc2ccccc2Cl)CC1`, the melting point lay within 150 to 157 °C.

Compound `Cc1cc(OCc2nc3ccccc3s2)ccc1N` showed a melting point of 110 to 111 °C.

As for `CCCCCCCCNC1=CC(=O)c2c(OC)ccc(OC)c2C1=O`, the melting point is 81 to 82 °C.

In the case of `OCC(CCNC1CCC(c2ccc(OCc3ccccc3)cc2)CC1)c1ccccc1` (racemic), the melting point was in the range of 140 to 142 °C.

For the compound `CCOc1ccc(C2C(=O)Oc3c2cc(C(C)(C)C)cc3C(C)(C)C)cc1` (configuration not stated), the melting point lay within 132 to 134 °C.

Take `CCOC(=O)CON1C(=O)C(=O)N(c2ccccc2SC)C1=S`: the melting point fell in the range of 112 to 114 °C.

In the case of `CCOC(=O)c1cnn(-c2cccc(S(=O)(=O)N(C)C)n2)c1S(N)(=O)=O`, the melting point is 102 to 104 °C.

For `CCCc1ncc(/C=C(\Cc2cccs2)C(=O)O)n1Cc1ccccc1[N+](=O)[O-]`, the melting point was 223 °C.

`O=C(NC[C@H]1CN(c2ccc(C3C=CS(=O)(=O)CC3)cc2)C(=O)O1)C(Cl)Cl` (some centres not stated) came in with a melting point of 159 to 161 °C.

On to `CC(=O)OC1CCC2(C)C(=CCC3C2CCC2(C)C(n4cnc5ccccc54)=CCC32)C1` (configuration not stated), for which the melting point lay in the range of 159 to 160 °C.

`Cc1cc(N2CCN(Cc3ccccc3)C2=O)sc1C(=O)NCc1cccnc1`: the melting point lay within 130 to 131 °C.

In the case of `COC(=O)c1cc(=O)c2c(C)cc(C)cc2[nH]1`, the melting point was in the range of 227 to 229 °C.

For the compound `Clc1c2c(nc3cn[nH]c13)CCCC2`, the melting point fell in the range of 190 to 193 °C.

Regarding `O=Cc1ccc(N2CCC3(CC2)OCCO3)c(Br)c1`, the melting point lay in the range of 63 to 64 °C.

`Nc1ncnc2c1ncn2Cc1nc2cc(F)ccc2c(=O)n1-c1ccccc1Cl` registered a melting point of 217 °C.

`CCCOc1cc(C(=O)O)cc(N)c1-c1ccccc1` showed a melting point of 101 to 102 °C.

With `COc1ccc(C(=O)CCC(=O)O)c2c1OC(C)(C)C2`, the melting point is 125 to 126 °C.

As for `CC(=O)Nc1ccc(CNC(=O)c2cccnc2Oc2ccc(F)cc2)cc1`, the melting point lay within 128 to 130 °C.

As to `COc1ccc(OC)c2c1CCC(O)(CC(=O)O)C2` (configuration not stated), the melting point lay in the range of 112 to 114 °C.

On to `COc1ccccc1-n1c(CSc2ncnc3[nH]cnc23)nc2cccc(Cl)c2c1=O`, for which the melting point is 237 °C.

Compound `CCCCCC(CC(=O)O)c1ccc(OC)cc1OC` (single isomer, unassigned; (+)) yielded a melting point of 51 to 52 °C.

Regarding `CN1CCC(c2ccc(Oc3ccccc3)cc2)(C(C)(C)O)CC1`, the melting point is 148 °C.

For the compound `NP(N)(=O)NC(=O)c1cccs1`, the melting point lay within 272 to 280 °C.

As to `C#CCNC(=O)c1ncn2c1[C@@H]1CCN1C(=O)c1sccc1-2`, the melting point was in the range of 233 to 235 °C.

`COc1nnc2n1C=Cc1cc(C)ccc1C2` yielded a melting point of 148 to 149 °C.

In the case of `NS(=O)(=O)c1cc2ncccc2o1`, the melting point is 219 to 221 °C.

The compound `c1ccc(OCCCCN2CCNCC2)cc1` gave a melting point of 35 to 36 °C.

Compound `CN(CC=C(F)C(F)(F)C(F)(F)C(F)(F)F)CCCCCC1Cc2cc(O)ccc2C2C(F)CC3(C)C(O)CCC3C12` (configuration not stated) yielded a melting point of 130 °C.

With `O=c1c(-c2cccc(C(F)(F)F)c2)coc2c(O)c(O)ccc12`, the melting point turned out to be 225 °C.

The compound `O=C(Nc1ccn(CC(O)CF)c(=O)n1)c1ccccc1` (racemic) gave a melting point of 205 °C.

Regarding `CCN(CC)C(=O)CCC1CCN(Cc2cnc3cc(NC(=O)c4ccc(-c5ccc(F)cc5)cc4)c(C)cc3c2)CC1`, the melting point fell in the range of 150 to 154 °C.

`C1=C(CCc2ccco2)CCN(Cc2c[nH]c3ncccc23)C1`: the melting point stood at 105 °C.

`Cc1cc(Br)ccc1NC(=O)CC(=O)O` displayed a melting point of 163 to 165 °C.

In turn, `CS(=O)(=O)c1cc(C(=O)O)c(N)cc1Cl` yielded a melting point of 284 to 286 °C.

`CC=CCn1c(C)c(C)c2cnnc(SCc3ccc(Cl)cc3Cl)c21` yielded a melting point of 81 to 85 °C.

Regarding `CCCCCCCC/C=C\CCCCCCCC(=O)N[C@H]1CCCNC(=O)C1`, the melting point lay within 66 to 67 °C.

The compound `COC(=O)N(C)C1CN(C(=O)Nc2ccc(OC(F)(F)F)cc2)N=C1c1ccc(OC(F)F)cc1` (configuration not stated) yielded a melting point of 125 to 126 °C.

`Cc1cccc(-c2[nH]c(C(C)C)nc2-c2cccc(-c3ccc(N)cn3)c2)n1` yielded a melting point of 119 to 124 °C.

Compound `CCn1c(=O)c(-c2cccs2)cc2cnc(Nc3ccccc3)nc21` showed a melting point of 223 to 225 °C.

For `C#CCOC(=O)C1=C(N)NC(N)=C(C(=O)OCC#C)C1c1cccc([N+](=O)[O-])c1`, the melting point stood at 170 °C.

In the case of `CCCCOCCOc1ccc(-c2ccc(N3CCC(C(=O)OC)C3)c(C=C(C)C(=O)O)c2)cc1` (configuration not stated), the melting point was in the range of 140 to 141 °C.

`CC(C)Nc1cccnc1N1CCN(C(=O)c2ccc(C(=O)N3CCSCC3)cc2)CC1` showed a melting point of 163 to 164 °C.

Take `c1cc(NC2=NCCN2)ccc1Cc1ccc(OC2CCOCC2)cc1`: the melting point was in the range of 169 to 170 °C.

The compound `O=Cc1ccc2cc3c(cc2c1)sc1ccccc13` gave a melting point of 182 to 185 °C.

With `CCOC(=O)COc1cc(O)c2c(c1Cl)OC1(CCCCC1)CC2=O`, the melting point lay in the range of 110 to 111 °C.

On to `Nc1nc2ccccc2c2c1ncn2CCOCc1ccncc1`, for which the melting point fell in the range of 159 to 161 °C.

On to `Cc1c(O)ccc2c(=O)c(-c3ccc([N+](=O)[O-])cc3)coc12`, for which the melting point amounted to 345 °C.

Turning to `FC(F)c1nc2ccccc2n1-c1nc(N2CCOCC2)nc(N2CCOCC2)n1`, the melting point fell in the range of 211 to 214 °C.

`CC(=O)Oc1cccnc1-n1ccnc1S(=O)Cc1ccccc1N1CCOCC1` (configuration not stated): the melting point was in the range of 104 to 107 °C.

Compound `COc1cc2c(cc1C#Cc1ccc(C(=O)O)cc1)C(C)(C)CCC2(C)C` displayed a melting point of 231 to 234 °C.

Regarding `CCCO[C@@H](C)C(=O)Oc1ccc(C(=O)O)cc1`, the melting point was 84 °C.

Turning to `O=C(O)c1cn(-c2ccc(F)cc2)c2cc(N3CCNC(COc4ccccc4)C3)c(F)cc2c1=O` (configuration not stated), the melting point lay within 204 to 207 °C.

As for `CCN(CC)CCOc1ccc(C#Cc2ccc(OC)cc2)cc1`, the melting point is 59 to 60 °C.

The compound `COc1cc(OC)c(N2CCCC2)cc1/C=C/C(=O)c1ccc(S(=O)(=O)NCc2ccccn2)cc1` came in with a melting point of 112 to 116 °C.

The compound `Cc1ccc(C(=O)c2[nH]c3cc(Cl)ccc3c2CC(=O)O)nc1` came in with a melting point of 235 to 238 °C.

As to `NC(=O)c1c(Cl)cc(Cl)c(OCC(=O)O)c1Cl`, the melting point fell in the range of 261 to 262 °C.

The compound `COC(=O)c1cc([N+](=O)[O-])c(C=Cc2ccc(OC)cc2)c([N+](=O)[O-])c1` gave a melting point of 142 to 143 °C.

`Cn1ncc2c1CCCc1cn[nH]c1-2` had a melting point of 153 to 155 °C.

`COc1ccc(Nc2ccc(C)cc2)c(C(=O)O)c1` came in with a melting point of 160 to 161 °C.

Compound `CCCc1ncc(CN2CC=C(c3ccc(F)cc3)CC2)c(N)n1` showed a melting point of 142 to 145 °C.

As to `C#CC12CC3CC(C1)CC(C14CC5CC(CC(C#C)(C5)C1)C4)(C3)C2`, the melting point fell in the range of 208 to 210 °C.

Consider `COC(=O)c1cc(NC(=O)c2cc(NC(=O)c3cc(NC(=O)OC(C)(C)C)cn3C)cn2C)cn1C`, for which the melting point amounted to 134 °C.

For `COc1cc(C(C)=O)ccc1OCCC(C)N1CCN(c2nn(C(=O)c3ccccc3)c3cc(F)ccc23)CC1` (configuration not stated), the melting point was 138 to 140 °C.

Compound `CCCc1nn(-c2ccc(C(F)(F)F)cn2)cc1CCCOc1cc(CCC(=O)O)n(-c2ccccc2)n1` displayed a melting point of 149 to 150 °C.

For `CSCC(O)CN1C(=O)C(CCC(=O)O)(NC(=O)c2ccc(Cl)c(Cl)c2)c2ccccc21` (configuration not stated), the melting point is 168 to 170 °C.

Compound `CN1C(=O)Cc2cc3ccccc3cc2S1(=O)=O` returned a melting point of 126 to 127 °C.

`COc1ccccc1N1CCN(CCCN2C(=O)c3ccccc3C2=O)CC1`: the melting point fell in the range of 85 to 93 °C.

For `CC(=O)N(c1ccc(N2CCN(C)CC2)cc1)c1ncc2c(n1)S/C(=C/c1ccc(C(=O)O)cc1)C(=O)N2`, the melting point was 326 to 330 °C.

With `COc1nc(N)nc2c1CCO2`, the melting point lay within 172 to 177 °C.

The compound `COC(=O)c1ccccc1OCCN1CCC(c2c[nH]c3ccccc23)CC1` gave a melting point of 124 to 125 °C.

Consider `O=C/C(=C/c1ccc(Cl)cc1Cl)c1ccc(Cl)cc1`, for which the melting point lay in the range of 106 to 109 °C.

As for `O=c1[nH]c2ccc(CCBr)cc2o1`, the melting point lay within 148 to 151 °C.

In turn, `O=C(CSC1c2ccccc2COc2ccc(OCc3ccc4ccc(Cl)cc4n3)cc21)NS(=O)(=O)c1ccccc1` (configuration not stated) yielded a melting point of 130 to 135 °C.

`COc1cc(N)c(Cl)cc1C(=O)OCC12CCCN(CC1)C2` (configuration not stated): the melting point lay within 131 to 133 °C.

Regarding `O=C(Cc1cccc2ccccc12)Nc1cc([C@H]2C[C@@H](Oc3nc4ccccc4o3)C2)[nH]n1`, the melting point is 142 °C.

In the case of `C#Cc1ccc(Cn2cc(-c3ccc(OC)cc3)ccc2=O)cn1`, the melting point came to 273 °C.

Consider `CCCc1nn(C)c2c(=O)[nH]c(-c3ccccc3OC)nc12`, for which the melting point was in the range of 140 to 141 °C.

Compound `CC1C=C(c2cccc(C(F)(F)F)c2)n2ncc(C#N)c2N1C(=O)CCl` (configuration not stated) gave a melting point of 160 to 163 °C.

In turn, `COc1ccc(CN2C(=O)C(C)(c3cc(NS(C)(=O)=O)ccc3Cl)c3cc(Cl)ccc32)c(OC)c1` (configuration not stated) yielded a melting point of 210 °C.

Broadly, the melting point is the temperature, or range, at which the solid turns liquid.
